How the values were obtained:
Assay type in all cases: in vivo
Settings in all cases: evaluated after 13 days
[1] = tested on: Amaranthus retoflexus (AMARE); assay: Pre-emergence Test, Amaranthus retoflexus (AMARE)
Zea mays (ZEAMX) [2] = assay: Post-emergence Test, Zea mays (ZEAMX); design: key to percentage damage caused to the plant, ZEAMX (five-point scale): 5=81-100%, 4=61-80%, 3=41-60%, 2=21-40%, 1=0-20% damage
Method in brief: (§1)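 Tested at 1000 g/ha unless otherwise stated. Plants were held at 24/16 °C day/night with a 14 h light period. Percent damage was read at 13 days and reported in five bands.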

Zea mays (ZEAMX) [3] = assay: Pre-emergence Test, Zea mays (ZEAMX)
[4] = tested on: Amaranthus retoflexus (AMARE); assay: Post-emergence Test, Amaranthus retoflexus (AMARE); design: key to percentage damage caused to the plant, AMARE (five-point scale): 5=81-100%, 4=61-80%, 3=41-60%, 2=21-40%, 1=0-20% damage
Method in brief: as §1

[5] = tested on: Amaranthus palmeri (AMAPA); assay: Pre-emergence Test, Amaranthus palmeri (AMAPA)
[6] = tested on: Ipomoea hederacea (IPOHE); assay: Pre-emergence Test, Ipomoea hederacea (IPOHE)
[7] = tested on: Ipomoea hederacea (IPOHE); assay: Post-emergence Test, Ipomoea hederacea (IPOHE); design: key to percentage damage caused to the plant, IPOHE (five-point scale): 5=81-100%, 4=61-80%, 3=41-60%, 2=21-40%, 1=0-20% damage
Method in brief: as §1

[8] = tested on: Echinochloa crus-galli (ECHCG); assay: Post-emergence Test, Echinochloa crus-galli (ECHCG); design: key to percentage damage caused to the plant, ECHCG (five-point scale): 5=81-100%, 4=61-80%, 3=41-60%, 2=21-40%, 1=0-20% damage
Method in brief: as §1

[9] = tested on: Amaranthus palmeri (AMAPA); assay: Post-emergence Test, Amaranthus palmeri (AMAPA); design: key: 5=81-100%, 4=61-80%, 3=41-60%, 2=21-40%, 1=0-20% damage
Method in brief: as §1

Setaria faberi (SETFA) [10] = assay: Pre-emergence Test, Setaria faberi (SETFA)
Setaria faberi (SETFA) [11] = assay: Post-emergence Test, Setaria faberi (SETFA); design: key to percentage damage caused to the plant, SETFA (five-point scale): 5=81-100%, 4=61-80%, 3=41-60%, 2=21-40%, 1=0-20% damage
Method in brief: as §1

[12] = tested on: Echinochloa crus-galli (ECHCG); assay: Pre-emergence Test, Echinochloa crus-galli (ECHCG)

Row | SMILES | Pre-emergence Test AMARE, percentage damage caused to the plant (five-point scale) ([1]; 250 g/Ha (*)) | Pre-emergence Test AMARE, percentage damage caused to the plant (five-point scale) ([1]; 1000 g/ha) | percentage damage caused to the plant, ZEAMX (five-point scale) (Zea mays (ZEAMX) [2]; 250 g/Ha) | percentage damage caused to the plant, ZEAMX (five-point scale) (Zea mays (ZEAMX) [2]; 1000 g/ha) | Pre-emergence Test ZEAMX, percentage damage caused to the plant (five-point scale) (Zea mays (ZEAMX) [3]; 250 g/Ha (*)) | Pre-emergence Test ZEAMX, percentage damage caused to the plant (five-point scale) (Zea mays (ZEAMX) [3]; 1000 g/ha) | percentage damage caused to the plant, AMARE (five-point scale) ([4]; 250 g/Ha) | percentage damage caused to the plant, AMARE (five-point scale) ([4]; 1000 g/ha) | Pre-emergence Test AMAPA, percentage damage caused to the plant (five-point scale) ([5]; 250 g/Ha (*)) | Pre-emergence Test AMAPA, percentage damage caused to the plant (five-point scale) ([5]; 1000 g/ha) | Pre-emergence Test IPOHE, percentage damage caused to the plant (five-point scale) ([6]; 250 g/Ha (*)) | Pre-emergence Test IPOHE, percentage damage caused to the plant (five-point scale) ([6]; 1000 g/ha) | percentage damage caused to the plant, IPOHE (five-point scale) ([7]; 250 g/Ha) | percentage damage caused to the plant, IPOHE (five-point scale) ([7]; 1000 g/ha) | percentage damage caused to the plant, ECHCG (five-point scale) ([8]; 250 g/Ha) | percentage damage caused to the plant, ECHCG (five-point scale) ([8]; 1000 g/ha) | percentage damage caused to the plant, AMAPA (five-point scale) ([9]; 250 g/Ha) | percentage damage caused to the plant, AMAPA (five-point scale) ([9]; 1000 g/ha) | Pre-emergence Test SETFA, percentage damage caused to the plant (five-point scale) (Setaria faberi (SETFA) [10]; 250 g/Ha (*)) | percentage damage caused to the plant, SETFA (five-point scale) (Setaria faberi (SETFA) [11]; 250 g/Ha) | also measured
1 | CCn1c(Cn2cc3c(n2)COC3)cc(=O)c(C(=O)O)c1-c1ccc(Cl)c(Cl)c1 [Compound 92, 2-(3,4-dichlorophenyl)-6-(4,6-dihydrofuro[3,4-c]pyrazol-2-ylmethyl)-1-ethyl-4-oxo-pyridine-3-carboxylic acid] | 0 | 0 | 2 (2=21-40%) | 2 (2=21-40%) | 0 | 0 | 2 (2=21-40%) | 2 (2=21-40%) | 1 (1=0-20%) | 2 (2=21-40%) | 3 (3=41-60%) | 2 (2=21-40%) | 3 (3=41-60%) | 3 (3=41-60%) | 3 (3=41-60%) | 4 (4=61-80%) | 2 (2=21-40%) | 2 (2=21-40%) | 3 (3=41-60%) | 3 (3=41-60%) | Pre-emergence Test SETFA, percentage damage caused to the plant (five-point scale) (Setaria faberi (SETFA) [10]; 1000 g/ha): 4 (4=61-80%); percentage damage caused to the plant, SETFA (five-point scale) (Setaria faberi (SETFA) [11]; 1000 g/ha): 3 (3=41-60%); Pre-emergence Test ECHCG, percentage damage caused to the plant (five-point scale) ([12]; 250 g/Ha (*)): 3 (3=41-60%); Pre-emergence Test ECHCG, percentage damage caused to the plant (five-point scale) ([12]; 1000 g/ha): 4 (4=61-80%)
2 | CCn1c(Cn2ncc(Cl)c2C2CC2)cc(=O)c(C(=O)O)c1-c1ccc(Cl)c(Cl)c1 [Compound 93, 6-[(4-chloro-5-cyclopropyl-pyrazol-1-yl)methyl]-2-(3,4-dichlorophenyl)-1-ethyl-4-oxo-pyridine-3-carboxylic acid] | 1 (1=0-20%) | – | 1 (1=0-20%) | – | 0 | – | 1 (1=0-20%) | – | 2 (2=21-40%) | – | 0 | – | 1 (1=0-20%) | – | 2 (2=21-40%) | – | 1 (1=0-20%) | – | 0 | 1 (1=0-20%) | Pre-emergence Test ECHCG, percentage damage caused to the plant (five-point scale) ([12]; 250 g/Ha (*)): 0
3 | CCn1c(Cn2cc(Cl)c(C3CC3)n2)cc(=O)c(C(=O)O)c1-c1ccc(Cl)c(Cl)c1 [Compound 94, 6-[(4-chloro-3-cyclopropyl-pyrazol-1-yl)methyl]-2-(3,4-dichlorophenyl)-1-ethyl-4-oxo-pyridine-3-carboxylic acid] | 0 | 1 (1=0-20%) | 0 | 0 | 0 | 0 | 3 (3=41-60%) | 3 (3=41-60%) | 1 (1=0-20%) | 2 (2=21-40%) | 0 | 1 (1=0-20%) | 0 | 3 (3=41-60%) | 4 (4=61-80%) | 1 (1=0-20%) | 2 (2=21-40%) | 3 (3=41-60%) | 1 (1=0-20%) | 0 | Pre-emergence Test SETFA, percentage damage caused to the plant (five-point scale) (Setaria faberi (SETFA) [10]; 1000 g/ha): 1 (1=0-20%); percentage damage caused to the plant, SETFA (five-point scale) (Setaria faberi (SETFA) [11]; 1000 g/ha): 4 (4=61-80%); Pre-emergence Test ECHCG, percentage damage caused to the plant (five-point scale) ([12]; 250 g/Ha (*)): 2 (2=21-40%); Pre-emergence Test ECHCG, percentage damage caused to the plant (five-point scale) ([12]; 1000 g/ha): 2 (2=21-40%)
4 | CCn1c(Cn2cc(C)c(C(F)(F)F)n2)cc(=O)c(C(=O)O)c1-c1ccc(Cl)c(Cl)c1 [Compound 96, 2-(3,4-dichlorophenyl)-1-ethyl-6-[[4-methyl-3-(trifluoromethyl)pyrazol-1-yl]methyl]-4-oxo-pyridine-3-carboxylic acid] | – | 1 (1=0-20%) | 0 | 4 (4=61-80%) | – | 0 | 0 | 1 (1=0-20%) | – | 1 (1=0-20%) | – | 1 (1=0-20%) | 0 | 0 | 2 (2=21-40%) | 2 (2=21-40%) | 0 | 0 | – | 0 | Pre-emergence Test SETFA, percentage damage caused to the plant (five-point scale) (Setaria faberi (SETFA) [10]; 1000 g/ha): 3 (3=41-60%); percentage damage caused to the plant, SETFA (five-point scale) (Setaria faberi (SETFA) [11]; 1000 g/ha): 3 (3=41-60%); Pre-emergence Test ECHCG, percentage damage caused to the plant (five-point scale) ([12]; 1000 g/ha): 3 (3=41-60%)

From US20250098679A1, “HERBICIDAL PYRIDONE DERIVATIVES” (SYNGENTA CROP PROTECTION AG, priority 2021, published 2025)
